Activity calls are given as the source filed them. No cut-off for these calls is given here.
Tests used:
Zingiber officinale [1] = test: Increase in marketable fruit yield in Zingiber officinale (ginger) plants at 90 L/ha applied through fumigation protocol (reference value: 48.2 ton/ha); format: functional
Zingiber officinale [2] = test: Increase in marketable fruit yield in Zingiber officinale (ginger) plants at 120 L/ha applied through fumigation protocol (reference value: 48.2 ton/ha); format: functional
Zingiber officinale [3] = test: Increase in marketable fruit yield in Zingiber officinale (ginger) plants at 180 L/ha applied through fumigation protocol (reference value: 48.2 ton/ha); format: functional
Zingiber officinale [4] = test: Increase in medium fruit yield in Zingiber officinale (ginger) plants at 90 L/ha applied through fumigation protocol (reference value: 24.6 ton/ha); format: functional
Meloidogyne incognita [5] = test: Nematicidal activity against Meloidogyne incognita (root-knot nematode) in ginger crop fields assessed as root galling index at 90 L/ha measured after 60 days post compound application (reference value: 5.49 root galling index); format: functional
Meloidogyne incognita [6] = test: Nematicidal activity against Meloidogyne incognita (root-knot nematode) in ginger crop fields assessed as root galling index at 120 L/ha measured after 60 days post compound application (reference value: 5.49 root galling index); format: functional
Meloidogyne incognita [7] = test: Nematicidal activity against Meloidogyne incognita (root-knot nematode) in ginger crop fields assessed as root galling index at 180 L/ha measured after 60 days post compound application (reference value: 5.49 root galling index); format: functional
Meloidogyne incognita [8] = test: Nematicidal activity against Meloidogyne incognita (root-knot nematode) in ginger crop fields assessed as number of nematodes per 100 cm3 soil at 90 L/ha measured after 60 days post compound application (reference value: 88.2 nematodes in 100 cm3 soil); format: functional
Meloidogyne incognita [9] = test: Nematicidal activity against Meloidogyne incognita (root-knot nematode) in ginger crop fields assessed as number of nematodes per 100 cm3 soil at 120 L/ha measured after 60 days post compound application (reference value: 88.2 nematodes in 100 cm3 soil); format: functional
Meloidogyne incognita [10] = test: Nematicidal activity against Meloidogyne incognita (root-knot nematode) in ginger crop fields assessed as number of nematodes per 100 cm3 soil at 180 L/ha measured after 60 days post compound application (reference value: 88.2 nematodes in 100 cm3 soil); format: functional
Meloidogyne incognita [11] = test: Nematicidal activity against Meloidogyne incognita (root-knot nematode) in ginger crop fields assessed as number of nematodes per 100 cm3 soil at 90 L/ha measured after 40 days post compound application (reference value: 75.3 nematodes in 100 cm3 soil); format: functional
Meloidogyne incognita [12] = test: Nematicidal activity against Meloidogyne incognita (root-knot nematode) in ginger crop fields assessed as number of nematodes per 100 cm3 soil at 120 L/ha measured after 40 days post compound application (reference value: 75.3 nematodes in 100 cm3 soil); format: functional
Zingiber officinale [13] = test: Increase in stem diameter of Zingiber officinale (ginger) plants at 120 L/ha applied through fumigation protocol (reference value: 11.3 mm); format: functional
Zingiber officinale [14] = test: Increase in stem diameter of Zingiber officinale (ginger) plants at 180 L/ha applied through fumigation protocol (reference value: 11.3 mm); format: functional
Ralstonia solanacearum [15] = test: Antimicrobial activity against Ralstonia solanacearum in ginger plants fields assessed as reduction in ginger blast-induced plant mortality at 120 to 180 L/ha applied through fumigation protocol; format: functional, organism-based
Meloidogyne incognita [16] = test: Nematicidal activity against Meloidogyne incognita (root-knot nematode) in ginger crop fields assessed as number of nematodes per 100 cm3 soil at 180 L/ha measured after 40 days post compound application (reference value: 75.3 nematodes in 100 cm3 soil); format: functional
Meloidogyne incognita [17] = test: Nematicidal activity against Meloidogyne incognita (root-knot nematode) in ginger crop fields assessed as number of nematodes per 100 cm3 soil at 90 L/ha measured after 20 days post compound application (reference value: 56.7 nematodes in 100 cm3 soil); format: functional
Meloidogyne incognita [18] = test: Nematicidal activity against Meloidogyne incognita (root-knot nematode) in ginger crop fields assessed as number of nematodes per 100 cm3 soil at 120 L/ha measured after 20 days post compound application (reference value: 56.7 nematodes in 100 cm3 soil); format: functional
Meloidogyne incognita [19] = test: Nematicidal activity against Meloidogyne incognita (root-knot nematode) in ginger crop fields assessed as number of nematodes per 100 cm3 soil at 180 L/ha measured after 20 days post compound application (reference value: 56.7 nematodes in 100 cm3 soil); format: functional
Zingiber officinale [20] = test: Increase in shoots number of Zingiber officinale (ginger) plants at 90 to 180 L/ha applied through fumigation protocol; format: functional, organism-based
Zingiber officinale [21] = test: Increase in leaves number of Zingiber officinale (ginger) plants at 90 to 180 L/ha applied through fumigation protocol; format: functional, organism-based
Zingiber officinale [22] = test: Increase in stem diameter of Zingiber officinale (ginger) plants at 90 L/ha applied through fumigation protocol (reference value: 11.3 mm); format: functional
Zingiber officinale [23] = test: Increase in medium fruit yield in Zingiber officinale (ginger) plants at 120 L/ha applied through fumigation protocol (reference value: 24.6 ton/ha); format: functional
Zingiber officinale [24] = test: Increase in medium fruit yield in Zingiber officinale (ginger) plants at 180 L/ha applied through fumigation protocol (reference value: 24.6 ton/ha); format: functional
Zingiber officinale [25] = test: Increase in large fruit yield in Zingiber officinale (ginger) plants at 90 L/ha applied through fumigation protocol (reference value: 20.1 ton/ha); format: functional
Zingiber officinale [26] = test: Increase in large fruit yield in Zingiber officinale (ginger) plants at 120 L/ha applied through fumigation protocol (reference value: 20.1 ton/ha); format: functional
Zingiber officinale [27] = test: Increase in large fruit yield in Zingiber officinale (ginger) plants at 180 L/ha applied through fumigation protocol (reference value: 20.1 ton/ha); format: functional
Zingiber officinale [28] = test: Increase in extra-large fruit yield in Zingiber officinale (ginger) plants at 90 L/ha applied through fumigation protocol (reference value: 3.5 ton/ha); format: functional
Zingiber officinale [29] = test: Increase in extra-large fruit yield in Zingiber officinale (ginger) plants at 180 L/ha applied through fumigation protocol (reference value: 3.5 ton/ha); format: functional
Capsella bursa-pastoris [30] = test: Herbicidal activity against Capsella bursa-pastoris assessed as reduction in weed populations at 90 to 180 L/ha; format: functional, organism-based
Digitaria sanguinalis [31] = test: Herbicidal activity against Digitaria sanguinalis (hairy crabgrass) assessed as reduction in weed populations at 90 to 180 L/ha; format: functional, organism-based
Stellaria media [32] = test: Herbicidal activity against Stellaria media assessed as reduction in weed populations at 90 to 180 L/ha; format: functional, organism-based
Zingiber officinale [33] = test: Increase in plant height of Zingiber officinale (ginger) plants at 90 L/ha applied through fumigation protocol (reference value: 79.6 cm); format: functional
Zingiber officinale [34] = test: Increase in plant height of Zingiber officinale (ginger) plants at 180 L/ha applied through fumigation protocol (reference value: 79.6 cm); format: functional
Zingiber officinale [35] = test: Increase in plant height of Zingiber officinale (ginger) plants at 120 L/ha applied through fumigation protocol (reference value: 79.6 cm); format: functional
Zingiber officinale [36] = test: Increase in marketable fruit yield in Zingiber officinale (ginger) plants at 400 kg/ha applied through fumigation protocol (reference value: 48.2 ton/ha); format: functional
Meloidogyne incognita [37] = test: Nematicidal activity against Meloidogyne incognita (root-knot nematode) in ginger crop fields assessed as root galling index at 400 kg/ha measured after 60 days post compound application (reference value: 5.49 root galling index); format: functional
Meloidogyne incognita [38] = test: Nematicidal activity against Meloidogyne incognita (root-knot nematode) in ginger crop fields assessed as number of nematodes per 100 cm3 soil at 400 kg/ha measured after 60 days post compound application (reference value: 88.2 nematodes in 100 cm3 soil); format: functional
Digitaria sanguinalis [39] = test: Herbicidal activity against Digitaria sanguinalis (hairy crabgrass) assessed as reduction in weed populations at 400 kg/ha; format: functional, organism-based
Stellaria media [40] = test: Herbicidal activity against Stellaria media assessed as reduction in weed populations at 400 kg/ha; format: functional, organism-based
Ralstonia solanacearum [41] = test: Antimicrobial activity against Ralstonia solanacearum in ginger plants fields assessed as reduction in ginger blast-induced plant mortality at 400 kg/ha applied through fumigation protocol; format: functional, organism-based
Meloidogyne incognita [42] = test: Nematicidal activity against Meloidogyne incognita (root-knot nematode) in ginger crop fields assessed as number of nematodes per 100 cm3 soil at 400 kg/ha measured after 40 days post compound application (reference value: 75.3 nematodes in 100 cm3 soil); format: functional
Meloidogyne incognita [43] = test: Nematicidal activity against Meloidogyne incognita (root-knot nematode) in ginger crop fields assessed as number of nematodes per 100 cm3 soil at 400 kg/ha measured after 20 days post compound application (reference value: 56.7 nematodes in 100 cm3 soil); format: functional
Zingiber officinale [44] = test: Increase in medium fruit yield in Zingiber officinale (ginger) plants at 400 kg/ha applied through fumigation protocol (reference value: 24.6 ton/ha); format: functional
Zingiber officinale [45] = test: Increase in large fruit yield in Zingiber officinale (ginger) plants at 400 kg/ha applied through fumigation protocol (reference value: 20.1 ton/ha); format: functional
Zingiber officinale [46] = test: Increase in extra-large fruit yield in Zingiber officinale (ginger) plants at 400 kg/ha applied through fumigation protocol (reference value: 3.5 ton/ha); format: functional
Capsella bursa-pastoris [47] = test: Herbicidal activity against Capsella bursa-pastoris assessed as reduction in weed populations at 400 kg/ha; format: functional, organism-based
Zingiber officinale [48] = test: Increase in plant height of Zingiber officinale (ginger) plants at 400 kg/ha applied through fumigation protocol (reference value: 79.6 cm); format: functional
Zingiber officinale [49] = test: Increase in stem diameter of Zingiber officinale (ginger) plants at 400 kg/ha applied through fumigation protocol (reference value: 11.3 mm); format: functional

Cl/C=C/CCl [1,3-DICHLOROPROPENE] gave a Crop_yield (Zingiber officinale [1]) of 64.7 tons/ha, a Crop_yield (Zingiber officinale [2]) of 71.1 tons/ha and a Crop_yield (Zingiber officinale [3]) of 75.8 tons/ha. For the same compound, the Crop_yield (Zingiber officinale [4]) was 32.4 tons/ha, the Root_galling_index (Meloidogyne incognita [5]) was 3.66 and the Root_galling_index (Meloidogyne incognita [6]) was 3.34. For the same compound, the Root_galling_index (Meloidogyne incognita [7]) was 2.31, the Activity (Meloidogyne incognita [8]) was 58.5 /10'2cm3 and the Activity (Meloidogyne incognita [9]) was 45.5 /10'2cm3. For the same compound, the Activity (Meloidogyne incognita [10]) was 36.9 /10'2cm3, the Activity (Meloidogyne incognita [11]) was 45.1 /10'2cm3 and the Activity (Meloidogyne incognita [12]) was 38.4 /10'2cm3. For the same compound, the Activity (Zingiber officinale [13]) was 12.8 mm, the Activity (Zingiber officinale [14]) was 13.9 mm and the Activity (Ralstonia solanacearum [15]) was “Active”. The Activity (Meloidogyne incognita [16]) was 27.3 /10'2cm3, the Activity (Meloidogyne incognita [17]) was 33.6 /10'2cm3 and the Activity (Meloidogyne incognita [18]) was 24.2 /10'2cm3. For the same compound, the Activity (Meloidogyne incognita [19]) was 17.3 /10'2cm3, the Activity (Zingiber officinale [20]) was “Active” and the Activity (Zingiber officinale [21]) was “Active”. For the same compound, the Activity (Zingiber officinale [22]) was 12.1 mm, the Crop_yield (Zingiber officinale [23]) was 36.3 tons/ha and the Crop_yield (Zingiber officinale [24]) was 38.2 tons/ha. The Crop_yield (Zingiber officinale [25]) was 24.9 tons/ha, the Crop_yield (Zingiber officinale [26]) was 26.9 tons/ha and the Crop_yield (Zingiber officinale [27]) was 29.5 tons/ha. For the same compound, the Crop_yield (Zingiber officinale [28]) was 7.4 tons/ha, the Crop_yield (Zingiber officinale [29]) was 8.1 tons/ha and the Activity (Capsella bursa-pastoris [30]) was “inactive”. For the same compound, the Activity (Digitaria sanguinalis [31]) was “inactive”, the Activity (Stellaria media [32]) was “inactive” and the Activity (Zingiber officinale [33]) was 82.6 cm. For the same compound, the Activity (Zingiber officinale [34]) was 88.9 cm and the Activity (Zingiber officinale [35]) was 85.4 cm.

In the case of CBr [BROMOMETHANE], the Crop_yield (Zingiber officinale [36]) is reported as 76.4 tons/ha, the Root_galling_index (Meloidogyne incognita [37]) is reported as 2.68 and the Activity (Meloidogyne incognita [38]) is reported as 47.4 /10'2cm3. For the same compound, the Activity (Digitaria sanguinalis [39]) was “Active”, the Activity (Stellaria media [40]) was “Active” and the Activity (Ralstonia solanacearum [41]) was “Active”. For the same compound, the Activity (Meloidogyne incognita [42]) was 31.6 /10'2cm3, the Activity (Meloidogyne incognita [43]) was 22.3 /10'2cm3 and the Crop_yield (Zingiber officinale [44]) was 39.1 tons/ha. The Crop_yield (Zingiber officinale [45]) was 28.7 tons/ha, the Crop_yield (Zingiber officinale [46]) was 8.6 tons/ha and the Activity (Capsella bursa-pastoris [47]) was “Active”. For the same compound, the Activity (Zingiber officinale [48]) was 91.3 cm and the Activity (Zingiber officinale [49]) was 13.5 mm.

From ChEMBL document CHEMBL3046436, “Effects of 1,3-dichloropropene as a methyl bromide alternative for management of nematode, soil-borne disease, and weed in ginger (Zingiber officinale) crops in China” (2012)
